Measurements published in patent US20100008965A1, “BIOCOMPATIBLE MEDICAL PRODUCTS HAVING ENHANCED ANTI-THROMBOGENIC PROPERTIES” (priority 2008, published 2010).

How the values were obtained:
HCAEC [1] = assay: HCAEC cell binding assay to immobilized fibronectin polypeptides (crystal violet); assay type: cell-based, human; settings: immobilized, 8 h
Procedure: (§1) Human coronary artery endothelial cell (HCAEC) and human umbilical vein endothelial cell (HUVEC) primary human cells were obtained (Cambrex Corporation, East Rutherford, N.J.) and maintained according to the manufacturer's instructions at 37° C. and 5% CO2. HCAEC were grown in microvascular endothelial cell medium (EBM-2 MV, Cambrex) supplemented with 5% fetal bovine serum, 0.1% human epidermal growth factor, 0.04% hydrocortisone, 0.1% vascular endothelial growth factor, 0.4% human fibroblast growth factor-B, 0.1% R^3-insulin-like growth factor-1, 0.1% ascorbic acid, and 0.1% gentamicin and amphotericin-B (GA-1000). HUVEC were grown in endothelial cell medium (EBM, Cambrex) supplemented with 2% fetal bovine serum, 0.4% bovine brain extract, 0.1% human epidermal growth factor, 0.1% hydrocortisone, and 0.1% gentamicin and amphotericin-B (GA-1000). HCAEC and HUVEC were subcultured at 90-95% confluence using 0.05% trypsin-EDTA (Invitrogen, Carlsbad, Calif.) and used for experiments between passages 3-7 (HUVEC) or 5-11 (HCAEC).
HCAEC or HUVEC cell binding assays to immobilized recombinant fibronectin polypeptides were performed in order to ascertain which polypeptide(s) maximally support(s) alpha-4 integrin-mediated cell adhesion. Connecting Segment-1 (SEQ ID NO:1), EILDV (SEQ ID NO:2), RGDS (SEQ ID NO:3) (positive control), RGES (SEQ ID NO:4) (negative control), and EILEVPST (SEQ ID NO:5) (negative control) and were immobilized by drying overnight at room temperature in Immobilizer™ Amino 96-well microplates (Nalge Nunc International, Rochester, N.Y.). RGES, EILDV, and EILEVPST were incubated at a molar equivalent concentration equal to 200 μg RGDS per well. CS-1 was incubated at 50 μg/well. On a molar basis per well, this equates to approximately twenty-fold less CS-1 relative to RGDS. […] Cells were manually counted, and their concentration adjusted to yield a total cell population of 5×10^4 cells/well. […] Spectrometric absorbance values were read at 562 nm at room temperature using a ThermoMax microplate reader (Molecular Devices Corporation, Sunnyvale, Calif.).

[2] = molecular target: human alpha-4 integrin (CD49d), alpha-4-containing integrin heterodimers on endothelial cells (human) (UniProt P13612); assay: flow cytometry, FITC-BU49 on fixed HUVEC, against isotype control
[3] = molecular target: human alpha-4 integrin (CD49d), alpha-4-containing integrin heterodimers on endothelial cells (human) (UniProt P13612); assay: flow cytometry, FITC-BU49 on fixed HCAEC, against isotype control
[4] = molecular target: human alpha-4 integrin (CD49d), alpha-4-containing integrin heterodimers on endothelial cells (human) (UniProt P13612); assay: flow cytometry, FITC-BU49 on fixed human foreskin fibroblasts, against isotype control
HUVEC [5] = assay: alpha-4 integrin function blocking cell binding assay, HUVEC; assay type: cell-based, human; settings: 0.5 μg antibody per 5×10^4 cells, 8 h; CS-1 p=0.1
Procedure: (§2) To verify that HCAEC or HUVEC adhesion to immobilized CS-1 polypeptides is specifically mediated via alpha-4-containing integrin heterodimers, alpha-4 integrin function blocking cell binding assays were performed. RGDS, EILEVPST, and CS-1 polypeptides were immobilized in Immobilizer™ Amino 96-well microplates. Microplate wells were prepared as described above. Trypsinized HCAEC or HUVEC suspensions were manually counted, aliquoted into two groups, and incubated for one hour on ice with one of the following antibodies at a concentration of 0.5 μg antibody per 5×10^4 cells: (a) mouse monoclonal IgG1 anti-human alpha-4-integrin (CD49d, clone P1H4) (Chemicon), or (b) mouse monoclonal IgG1 anti-human isotype-matched control (R&D Systems). Next, 5×10^4 cells suspended in their respective basal medium were added to wells containing immobilized peptide polypeptides and incubated for eight hours at 37° C. and a 5% CO2 atmosphere. Adherent cells were analyzed via crystal violet staining as described previously.
To differentiate whether HCAEC and HUVEC adhere to CS-1 peptides via an alpha-4 integrin-specific interaction, HCAEC and HUVEC adhesion assays to CS-1, RGDS, and EILEVPST peptides were performed following one hour endothelial cell incubations with either an alpha-4 integrin function blocking antibody or an IgG isotype-matched control antibody. […]

HCAEC [6] = assay: alpha-4 integrin function blocking cell binding assay, HCAEC; assay type: cell-based, human; settings: 0.5 μg antibody per 5×10^4 cells, 8 h; CS-1 p<0.05
Procedure: as §2
To differentiate whether HCAEC and HUVEC adhere to CS-1 peptides via an alpha-4 integrin-specific interaction, HCAEC and HUVEC adhesion assays to CS-1, RGDS, and EILEVPST peptides were performed following one hour endothelial cell incubations with either an alpha-4 integrin function blocking antibody or an IgG isotype-matched control antibody. The EILEVPST peptide served as the negative control cell adhesion peptide. The RGDS peptide served as an additional control. Endothelial cell adhesion to RGDS is primarily mediated by alpha-5-beta-1 integrins. Therefore, alpha-4 integrin function blocking should not have a significant effect on adhesion to RGDS. Thus, specificity of HCAEC and HUVEC binding to CS-1 via alpha-4 integrins could be tested.

human platelets [7] = assay: DiOC6-labeled platelet adhesion imaging under shear flow; assay type: cell-based; settings: 16.5 dyne/cm^2, one hour
Procedure: To visualize shear stress-mediated platelet adhesion to the immobilized ECM proteins, non-radiolabeled non-activated or thrombin-activated human platelets were prepared as described above, but were first incubated for ten minutes at room temperature with a 10 μM DiOC6 (dihexaoxacarbocyanine iodide) (Sigma) solution prior to being subjected to flow for one hour at a shear stress τ=16.5 dyne/cm^2. Post-flow, all slides were rinsed twice with PBS and fixed with 4% (w/v) paraformaldehyde. Platelet adhesion was visualized on a Nikon Diaphot 200 inverted epifluorescence microscope (Nikon) at 488 nm using a 40× objective. Images were captured using an Olympus DP70 digital camera (Olympus America, Inc.) and analyzed using the Adobe® Photoshop® software package version 6.0 (Adobe Systems Incorporated, San Jose, Calif.).

human platelets [8] = assay: 51Cr-labeled platelet adhesion to immobilized ECM proteins under shear flow; assay type: cell-based; settings: 16.5 dyne/cm^2, one hour; non-activated and thrombin-activated; versus CS-1 and glass control
Procedure: Characterization of human platelet adhesion to immobilized extracellular matrix proteins was performed by subjecting non-activated or thrombin-activated human platelets to a shear stress τ=16.5 dyne/cm^2 for one hour using a peristaltic pump-driven parallel plate fluid flow system. Washed human platelets were isolated as described above, resuspended in platelet washing buffer (PWB), and adjusted to a final concentration of approximately 0.5-1.0×10^9 platelets/ml. The platelet suspensions were incubated for thirty minutes at room temperature with 25 μCi/ml Na2^51CrO4 (GE Healthcare, Piscataway, N.J.). ^51Cr-labeled platelets were centrifuged at 2000×g for three minutes at room temperature and resuspended in 20 ml fresh frozen plasma previously thawed and warmed to 37° C. The ^51Cr-platelet/plasma solution was distributed equally (5 ml) into each of four reservoirs containing an additional 50 ml of 37° C. human plasma. For thrombin-activated platelets, 1 U thrombin (Sigma) per 3 ml platelet suspension was added immediately prior to aliquoting the ^51Cr-platelet/plasma solution into the flow loop reservoirs.
75×38×1 mm glass microscope slides were coated with ECM proteins as described above. Slides were incubated for one hour at room temperature with a 0.25% (w/v) sterile-filtered BSA solution. […]

HUVEC [9] = assay: HUVEC cell binding assay to immobilized fibronectin polypeptides (crystal violet); assay type: cell-based, human; settings: 8 h
Procedure: as §1, with “HCAEC and HUVEC were subcultured at 90-95% confluence using 0.05% trypsin-EDTA (Invitrogen, Carlsbad, Calif.) and used for experiments between passages 3-7 (HUVEC) or 5-11 (HCAEC).” left out
HCAEC or HUVEC cell binding assays to immobilized recombinant fibronectin polypeptides were performed in order to ascertain which polypeptide(s) maximally support(s) alpha-4 integrin-mediated cell adhesion. […] Cells were manually counted, and their concentration adjusted to yield a total cell population of 5×10^4 cells/well. […] Spectrometric absorbance values were read at 562 nm at room temperature using a ThermoMax microplate reader (Molecular Devices Corporation, Sunnyvale, Calif.).

[10] = molecular target: human alpha-4 integrin (CD49d), alpha-4-containing integrin heterodimers on endothelial cells (human, UniProt P13612 34-1032); assay: cell-based or functional assay
Chain of human alpha-4 integrin (CD49d), alpha-4-containing integrin heterodimers on endothelial cells (P13612 34-1032, one chain of several): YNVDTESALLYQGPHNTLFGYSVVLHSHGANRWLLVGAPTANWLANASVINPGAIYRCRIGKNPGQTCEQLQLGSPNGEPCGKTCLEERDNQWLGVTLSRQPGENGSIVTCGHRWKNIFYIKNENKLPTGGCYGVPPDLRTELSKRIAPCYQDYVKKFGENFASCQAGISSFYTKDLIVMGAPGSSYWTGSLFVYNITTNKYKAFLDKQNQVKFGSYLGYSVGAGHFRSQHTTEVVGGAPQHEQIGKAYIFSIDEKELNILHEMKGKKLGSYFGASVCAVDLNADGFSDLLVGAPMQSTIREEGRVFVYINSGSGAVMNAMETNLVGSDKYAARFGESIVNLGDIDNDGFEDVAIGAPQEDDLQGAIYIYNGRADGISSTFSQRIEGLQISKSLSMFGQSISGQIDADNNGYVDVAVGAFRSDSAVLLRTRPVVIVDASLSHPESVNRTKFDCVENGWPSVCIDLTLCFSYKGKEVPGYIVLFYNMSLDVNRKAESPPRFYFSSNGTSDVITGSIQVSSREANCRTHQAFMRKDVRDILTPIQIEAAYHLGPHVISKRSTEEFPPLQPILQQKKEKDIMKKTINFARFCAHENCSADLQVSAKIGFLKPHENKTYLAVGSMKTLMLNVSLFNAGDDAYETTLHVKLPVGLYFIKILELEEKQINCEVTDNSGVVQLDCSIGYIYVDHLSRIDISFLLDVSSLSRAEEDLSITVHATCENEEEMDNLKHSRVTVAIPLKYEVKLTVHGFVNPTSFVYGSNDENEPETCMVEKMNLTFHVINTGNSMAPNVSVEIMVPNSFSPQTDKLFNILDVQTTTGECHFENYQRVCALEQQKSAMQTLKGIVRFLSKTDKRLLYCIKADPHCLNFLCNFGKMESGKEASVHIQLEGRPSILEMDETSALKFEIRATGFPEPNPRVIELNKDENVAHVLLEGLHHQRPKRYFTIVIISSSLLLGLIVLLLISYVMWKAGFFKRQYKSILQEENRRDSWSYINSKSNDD

Chain of human alpha-4 integrin (CD49d), alpha-4-containing integrin heterodimers on endothelial cells (human) (P13612 34-1032, one chain of several): as above

Molecule: EILDV (listed as Homo sapiens) [fibronectin IIICS peptide]
- HCAEC adhesion compared with RGES control (HCAEC [1]): not statistically different than the RGES control

Molecule: FITC-conjugated mouse monoclonal IgG1 anti-human alpha-4 integrin (CD49d, clone BU49) (Chemicon International) (antibody)
- percent of cell population positive [2]: 10%
- percent of cell population positive [3]: 40%
- percent of cell population positive [4]: 75%

Molecule: RGDS (listed as Homo sapiens) [integrin-mediated cell adhesion peptide, positive control]
- difference in HUVEC adhesion between IgG isotype control and alpha-4 integrin blocking antibody treated cells (HUVEC [5]): not statistically significant
- difference in HCAEC adhesion between IgG isotype control and alpha-4 integrin blocking antibody treated cells (HCAEC [6]): not statistically significant

Molecule: type I human collagen: human type I collagen (Sigma), extracellular matrix protein
- non-activated platelet adhesion and thrombus formation (DiOC6 images) (human platelets [7]; non-activated platelets): quite vigorous, with clear evidence of multiple organized thrombi
- thrombin-activated platelet adhesion and thrombus formation (DiOC6 images) (human platelets [7]; platelets activated prior to flow): mimicked the non-activated counterparts
- flowed platelet binding (51Cr), both states of activation (human platelets [8]): significantly increased binding

Molecule: EILEVPST (listed as Homo sapiens) [alpha-4 integrin-mediated negative control peptide]
- difference in HUVEC adhesion between IgG isotype control and alpha-4 integrin blocking antibody treated cells (HUVEC [5]): not statistically significant
- HUVEC adhesion compared with RGES control (HUVEC [9]): essentially equivalent
- HCAEC adhesion compared with RGES control (HCAEC [1]): essentially equivalent
- difference in HCAEC adhesion between IgG isotype control and alpha-4 integrin blocking antibody treated cells (HCAEC [6]): not statistically significant

Molecule: DELPQLVTLPHPNLHGPEILDVPST
- HCAEC adhesion to immobilized peptide, fold relative to control peptide RGES (crystal violet, A562) [10]: 1.6 fold
- HUVEC adhesion to immobilized peptide, fold relative to control peptide RGES (crystal violet, A562) [10]: ~4 fold
- percent more of the total HCAEC population adhered, relative to RGES [10]: ~20%
- percent more of the total HUVEC population adhered, relative to RGES [10]: ~25%
